This is an account of results in US5126488A, “2β,19-methyleneamino bridged steroids as aromatase inhibitors” (Merrell Dow Pharmaceuticals Inc., priority 1990, dated 1992).

For this experiment, the target named is T1, aromatase (Homo sapiens, UniProt P11511).
T1 construct: 700 μl of aromatase preparation, usually 300-800 μg of microsomal protein per ml of assay buffer; from tissue; host or cells: microsomes
T1 sequence (P11511 1-503): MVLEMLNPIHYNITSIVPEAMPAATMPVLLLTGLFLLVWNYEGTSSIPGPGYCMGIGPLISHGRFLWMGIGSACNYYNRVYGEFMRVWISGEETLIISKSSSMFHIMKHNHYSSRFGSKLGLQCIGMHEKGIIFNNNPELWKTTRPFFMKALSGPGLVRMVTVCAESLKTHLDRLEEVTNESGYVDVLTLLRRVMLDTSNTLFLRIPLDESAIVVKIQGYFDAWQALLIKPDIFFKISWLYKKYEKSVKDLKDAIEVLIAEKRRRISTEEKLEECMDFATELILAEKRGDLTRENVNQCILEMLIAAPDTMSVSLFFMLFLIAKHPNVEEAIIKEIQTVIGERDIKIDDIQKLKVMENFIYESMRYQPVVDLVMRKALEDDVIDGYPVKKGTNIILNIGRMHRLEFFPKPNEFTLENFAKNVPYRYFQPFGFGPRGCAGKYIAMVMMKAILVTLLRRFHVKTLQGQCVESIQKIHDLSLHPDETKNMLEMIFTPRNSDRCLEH
The experiment can be described thus: time-dependent aromatase inhibition assay (preincubation, Kitz-Wilson analysis). The note with it: Kitz-Wilson plots. It counts as biochemical. Here is the method: In this assay, the inhibitor is preincubated with enzyme prior to assaying for activity in the presence of high substrate levels. A time-related decrease in enzyme activity can be indicative of a preferred mode of inhibition.
In the time-dependent assay, an amount of the enzyme inhibitor in 100 μl of the assay buffer described above which will provide assay concentrations which are usually between 1 nM and 10 μm are added to 35 ml centrifuge tubes containing 600 μl of the NADPH generating system. The preincubation is started by the addition of 700 μl of aromatase preparation, usually 300-800 μg of microsomal protein per ml of assay buffer. These preparations are mixed using a vortex mixer and incubated for 0, 5, 10 or 20 minutes at 25° C. […] The amount of radioactivity in the aqueous fraction is determined by scintillation procedures. The enzymatic activity for each concentration of inhibitor at each time period of preincubation is calculated as a percent of the "0" minute vehicle control arbitrarily set at 100%. Therefore, the present enzyme inhibition is expressed as a percentage: (100 percent minus percent enzyme activity with inhibitor present).
Enzyme kinetic analysis utilized Kitz-Wilson plots for time-dependent assays. […] The pseudo first-order rate constant for enzyme inactivation (kcat) and the half-time of inactivation (.tau.50) of infinite inhibitor concentrations were determined. […]

For the molecule `C[C@]12CC[C@H]3[C@@H](CCC4=CC(=O)[C@H]5CNC[C@]43C5)[C@@H]1CCC2=O` [2β,19-(methyleneamino)androst-4-ene-3,17-dione], under “at infinite inhibitor concentrations”, the “.tau.50 (half-time of inactivation)” value is reported as 2.66 min. Also, the KI (inactivation) (inhibitor concentration giving half-maximal rate of enzyme inactivation, microsomal aromatase preparation, preincubation 0-20 min at 25° C., read-out: Ki (apparent Ki of inactivation)) stood at 259 nM.
